Where “and” joins values, the source holds several entries; their conditions need not be identical. Identical values can stand only once.
Assay: mn = molality of the nth substance listed, in mol/kg
Conditions: 101 kPa, Liquid, Pycnometric method

CN(C)C(=N)NC(=N)N.Cl [N,N-dimethylimidodicarbonimidic diamide hydrochloride] + O
Conditions	mass density
288.15 K, m1 = 0.0309	1000.34 kg/m3
288.15 K, m1 = 0.0416	1000.77 kg/m3
288.15 K, m1 = 0.0506	1001.17 kg/m3
288.15 K, m1 = 0.0608	1001.55 kg/m3
288.15 K, m1 = 0.0712	1001.9 kg/m3
288.15 K, m1 = 0.0815	1002.31 kg/m3
288.15 K, m1 = 0.0922	1002.71 kg/m3
288.15 K, m1 = 0.1028	1003.21 kg/m3
288.15 K, m1 = 0.1138	1003.39 kg/m3
288.15 K, m1 = 0.1207	1003.71 kg/m3
288.15 K, m1 = 0.1527	1004.89 kg/m3
298.15 K, m1 = 0.029	998.2 kg/m3
298.15 K, m1 = 0.0415	998.7 kg/m3
298.15 K, m1 = 0.0508	999.07 kg/m3
298.15 K, m1 = 0.0592	999.42 kg/m3
298.15 K, m1 = 0.0725	999.91 kg/m3
298.15 K, m1 = 0.0769	1000.1 kg/m3
298.15 K, m1 = 0.0904	1000.51 kg/m3
298.15 K, m1 = 0.1072	1001.13 kg/m3
298.15 K, m1 = 0.1191	1001.63 kg/m3 and 1001.57 kg/m3
298.15 K, m1 = 0.1303	1002 kg/m3
308.15 K, m1 = 0.0306	995.14 kg/m3
308.15 K, m1 = 0.0404	995.53 kg/m3
308.15 K, m1 = 0.0514	995.89 kg/m3
308.15 K, m1 = 0.058	996.2 kg/m3
308.15 K, m1 = 0.0704	996.6 kg/m3
308.15 K, m1 = 0.0811	996.95 kg/m3
308.15 K, m1 = 0.0915	997.53 kg/m3
308.15 K, m1 = 0.1014	997.74 kg/m3
308.15 K, m1 = 0.1218	998.62 kg/m3
308.15 K, m1 = 0.152	999.56 kg/m3

CNC(=C[N+](=O)[O-])NCCSCc1ccc(CN(C)C)o1.Cl [ranitidine hydrochloride] + O
Conditions	mass density [kg/m3]
288.15 K, m1 = 0.0202	1000.92
288.15 K, m1 = 0.0306	1001.78
288.15 K, m1 = 0.0407	1002.69
288.15 K, m1 = 0.0488	1003.32
288.15 K, m1 = 0.0602	1004.33
288.15 K, m1 = 0.0702	1005.27
288.15 K, m1 = 0.0813	1006.23
288.15 K, m1 = 0.092	1007.13
288.15 K, m1 = 0.1019	1007.93
288.15 K, m1 = 0.1149	1009.12
288.15 K, m1 = 0.1521	1012.15
298.15 K, m1 = 0.0103	997.99
298.15 K, m1 = 0.0198	998.81
298.15 K, m1 = 0.0295	999.58
298.15 K, m1 = 0.0501	1001.38
298.15 K, m1 = 0.0603	1002.17
298.15 K, m1 = 0.0697	1002.94
298.15 K, m1 = 0.0789	1003.7
298.15 K, m1 = 0.0907	1004.69
298.15 K, m1 = 0.0994	1005.38
298.15 K, m1 = 0.1171	1006.83
298.15 K, m1 = 0.1475	1009.32
308.15 K, m1 = 0.0109	994.91
308.15 K, m1 = 0.0191	995.59
308.15 K, m1 = 0.0313	996.62
308.15 K, m1 = 0.0428	997.58
308.15 K, m1 = 0.0507	998.2
308.15 K, m1 = 0.059	998.85
308.15 K, m1 = 0.0695	999.78
308.15 K, m1 = 0.0876	1001.15
308.15 K, m1 = 0.0986	1002.15
308.15 K, m1 = 0.119	1003.69
308.15 K, m1 = 0.1483	1006.01

COc1cccc([C@@]2(O)CCCC[C@@H]2CN(C)C)c1.Cl [tramadol hydrochloride] + O
Conditions	mass density [kg/m3]
288.15 K, m1 = 0.0138	999.75
288.15 K, m1 = 0.026	1000.36
288.15 K, m1 = 0.0298	1000.53
288.15 K, m1 = 0.04	1001.04
288.15 K, m1 = 0.0536	1001.72
288.15 K, m1 = 0.0604	1002.03
288.15 K, m1 = 0.0702	1002.51
288.15 K, m1 = 0.0805	1002.96
288.15 K, m1 = 0.0903	1003.44
288.15 K, m1 = 0.099	1003.81
288.15 K, m1 = 0.1207	1004.82
288.15 K, m1 = 0.1511	1006.21
298.15 K, m1 = 0.0114	997.56
298.15 K, m1 = 0.0211	998.02
298.15 K, m1 = 0.0296	998.42
298.15 K, m1 = 0.0403	998.93
298.15 K, m1 = 0.0501	999.29
298.15 K, m1 = 0.0607	999.82
298.15 K, m1 = 0.0804	1000.74
298.15 K, m1 = 0.0923	1001.23
298.15 K, m1 = 0.1016	1001.66
298.15 K, m1 = 0.1183	1002.31
298.15 K, m1 = 0.149	1003.78
308.15 K, m1 = 0.0117	994.5
308.15 K, m1 = 0.0195	994.81
308.15 K, m1 = 0.0299	995.32
308.15 K, m1 = 0.0399	995.75
308.15 K, m1 = 0.0493	996.19
308.15 K, m1 = 0.06	996.6
308.15 K, m1 = 0.0717	997.13
308.15 K, m1 = 0.082	997.64
308.15 K, m1 = 0.0912	997.99
308.15 K, m1 = 0.1	998.39
308.15 K, m1 = 0.1181	999.15
308.15 K, m1 = 0.1501	1000.52

From the NIST ThermoML archive (doi:10.1016/j.jct.2011.12.022)
